In one series the test system is 2D rat cortical cultures. Particulars: cited from earlier work; for AC50: read-out: ac50 CCTE_Shafer_MEA_dev_AB, rNFA mc5; for Cytotoxicity in the resazurin assay of the rNFA (in words): ref Brown et al. [2016], Carstens et al. [2022], Frank et al. [2017b], Shafer et al. [2019], ToxCast invitrodb (v4.2). Background: Alamar Blue is a resazurin reagent that responds to reducing activity.

The subject of the next series is BrainSpheres. The series can be described thus: Cytotoxicity evaluation, resazurin assay (BrainSphere.Cyto). For hitc BrainSphere.Cyto: key: 1 (active); 0 (inactive). In kind it is cell-based, human. The conditions noted are these: for AC50: read-out: ac50 BrainSphere.Cyto; for Top BrainSphere.Cyto: top of winning model, response normalized as percent of vehicle control, negative = decrease. How it is done:
For the resazurin assay, BrainSpheres were cultured for 7 weeks in non-treated 6-well plates under gyratory shaking. Subsequently, the cells were exposed in the same manner as the HD-MEA plates. This assay was used to determine cell viability after exposure for 13 days to the different compounds. After exposure, resazurin diluted in PBS was added directly to the 6-well plates to a final concentration of 0.1 mg/ml. The plates were then put in an incubator for 3 h at 37 °C, 5% CO2. Then, 100 µl of the media was collected and transferred in a 96-well plate for fluorescence analysis, which was done at ex:530 nm/em:590 nm in a multi-well fluorometric reader CytoFluor series 4000 (PerSeptive Biosystems, Inc).
Ten metrics were measured to evaluate changes in neural activity in the BrainSphere MEA assay (Table 3). Considering the complexity of the data which includes seven recording days for each single ROI in a well, an area under the curve (AUC) metric was used to reduce activity across time as described in previous publications (Brown et al. [2016]; Frank et al. [2017b]; Shafer et al. [2019]). […] For concentration–response modeling, the mean AUC values across all the BrainSpheres per well (technical replicates) was computed for each endpoint, such that each concentration included biological replicates from at least three separate wells on three separate plates, representing each individual experiment. The mean AUC values were used for concentration–response modeling using the R package tcplfit2 (version 0.1.6) (Sheffield et al. [2022]). Data were normalized as a percent of vehicle control wells by plate using the equation: resp.pc=rval-bval/bval×100 where resp.pc is the percent of control value, rval is the response value, and bval is the baseline value (defined as the mean of the vehicle control and the lowest tested concentration). […] The activity cutoff was defined as 3 times the median absolute deviation (bmad) of baseline values. A curve was defined as ‘active’ if the continuous hit call was ≥ 0.9. See Supplemental Table 1 for the bmad, activity cutoff threshold, SD, and benchmark response for each endpoint in the BrainSphere MEA. Potency was defined as the concentration at 50% maximal activity (AC50 log10 µM).

Setting [1] is: rNFA mc5 hit call, cytotoxicity AlamarBlue.
Setting [2] is: Homo sapiens, 312 h, resazurin, day 13, Supplement 3 prints it also for curves with hit call 0.
[3] abbreviates: resazurin, after 13 days of exposure.
Where [4] appears, read: tcplfit2 BMD at benchmark response (1.349*SD of baseline controls).
[5] abbreviates: tcplfit2 output ACC, activity cutoff in Supplemental Table 1.
Where [6] appears, read: resazurin, day 13, Supplement 3 prints it also for curves with hit call 0.

Where two headings read alike, the source gives them in different places. Marks after values point to notes of the source that are not given here.

These results are taken from paper PMC12198282, “Application of a high-density microelectrode array assay using a 3D human iPSC-derived brain microphysiological system model for in vitro neurotoxicity screening of environmental compounds” (Archives of Toxicology, 2025).

The term AC50 denotes the concentration giving half of the maximal activity seen. With `CC(C)(c1ccc(O)cc1)c1ccc(O)cc1` [Bisphenol A], the “hitc CCTE_Shafer_MEA_dev_AB” value in the series with 2D rat cortical cultures (setting [1]) was 0. Moreover, the AC50 in the series with BrainSpheres (setting [2]) was found to be 6.8 µM. The same molecule showed a Cytotoxicity hit in the series with BrainSpheres (setting [3]) of 0. In the series with BrainSpheres (resazurin, day 13, tcplfit2), the “hitc BrainSphere.Cyto” value stood at 0. Also, the “BMD BrainSphere.Cyto” value in the series with BrainSpheres (setting [4]) was found to be 680 µM. Moreover, in the series with BrainSpheres (setting [5]), the “ACC BrainSphere.Cyto” value was 11523 µM.
As for `CC1(C)S[C@@H]2[C@H](NC(=O)[C@H](N)c3ccc(O)cc3)C(=O)N2[C@H]1C(=O)O` [Amoxicillin], in the series on 2D rat cortical cultures (setting [1]), the “hitc CCTE_Shafer_MEA_dev_AB” value is reported as 0. For the same molecule, the AC50 in the series with BrainSpheres (setting [2]) came out at 45 µM. Also, the Cytotoxicity hit with BrainSpheres (human) was 0. Moreover, the “hitc BrainSphere.Cyto” value in the series with BrainSpheres (resazurin, day 13, tcplfit2) was determined as 0. In addition, the “BMD BrainSphere.Cyto” value with BrainSpheres (setting [4]) worked out at 94 µM.
On to `CC(=O)Nc1ccc(O)cc1` [Acetaminophen], for which the “hitc CCTE_Shafer_MEA_dev_AB” value in the series on 2D rat cortical cultures (setting [1]) is 0. Moreover, the AC50 in the series with BrainSpheres (Homo sapiens, 312 h) was 45 µM. For the same molecule, in the series on BrainSpheres (human), the “BMD BrainSphere.Cyto” value is 174 µM, the Cytotoxicity hit stood at 0 and the “hitc BrainSphere.Cyto” value amounted to 0.
In the case of `CCCC(CCC)C(=O)O` [Sodium valproate], in the series with 2D rat cortical cultures (setting [1]), the “hitc CCTE_Shafer_MEA_dev_AB” value is given as 0. Moreover, the AC50 in the series with BrainSpheres (setting [2]) was determined as 45 µM. In the series on BrainSpheres (human), the “BMD BrainSphere.Cyto” value was 117 µM, the Cytotoxicity hit came out at 0 and the “hitc BrainSphere.Cyto” value stood at 0.
In the case of `ClC1=C(Cl)[C@]2(Cl)[C@@H]3[C@@H]4C[C@@H]([C@H]5O[C@@H]45)[C@@H]3[C@@]1(Cl)C2(Cl)Cl` [Dieldrin], the “hitc CCTE_Shafer_MEA_dev_AB” value with 2D rat cortical cultures is 1. Also, the AC50 in the series on 2D rat cortical cultures (cytotoxicity AlamarBlue) was 22.4 µM; in the series on BrainSpheres (setting [2]), 45 µM. The “Cytotoxicity in the resazurin assay of the rNFA (in words)” value (shortened to “Cytotoxicity in the resazurin assay”) with 2D rat cortical cultures is reported as “demonstrating cytotoxicity in the rNFA”. The molecule further returned a Cytotoxicity hit in the series with BrainSpheres (setting [3]) of 0. Moreover, the “hitc BrainSphere.Cyto” value in the series with BrainSpheres (resazurin, day 13, tcplfit2) is 0. Besides, the “BMD BrainSphere.Cyto” value in the series on BrainSpheres (setting [4]) came to 509 µM.
For the molecule `Brc1ccc(Oc2ccc(Br)cc2Br)c(Br)c1` [BDE- 47], the “hitc CCTE_Shafer_MEA_dev_AB” value in the series on 2D rat cortical cultures (setting [1]) is given as 1. Further, the values for the AC50 in the series on 2D rat cortical cultures (cytotoxicity AlamarBlue) and in the series with BrainSpheres (setting [6]) were 8.31 µM and 45 µM, respectively. Also, the “Cytotoxicity in the resazurin assay” value in the series with 2D rat cortical cultures is given as “demonstrating cytotoxicity in the rNFA”. In the series with BrainSpheres (setting [3]), the Cytotoxicity hit is reported as 0. Also, the “hitc BrainSphere.Cyto” value with BrainSpheres (resazurin, day 13, tcplfit2) is given as 0. In addition, in the series with BrainSpheres (setting [4]), the “BMD BrainSphere.Cyto” value came out at 79 µM. For the same molecule, the “ACC BrainSphere.Cyto” value with BrainSpheres (setting [5]) was 89 µM. For the same molecule, the “Top BrainSphere.Cyto” value in the series on BrainSpheres came to 4.9.
As to `C/C(=C/C=C/[C@@H](C)C(=O)O)[C@H]1CN[C@H](C(=O)O)[C@H]1CC(=O)O` [Domoic acid], the “hitc CCTE_Shafer_MEA_dev_AB” value in the series on 2D rat cortical cultures (setting [1]) is recorded as 0. Also, the AC50 with BrainSpheres (Homo sapiens, 312 h) is 5 µM. For the same molecule, the “Cytotoxicity / cell viability in the BrainSphere resazurin assay (in words)” value (shortened to “Cytotoxicity / cell viability”) in the series on BrainSpheres (day 13 of exposure) was “magnitude of the response was not sufficient to indicate a positive response”. Besides, the Cytotoxicity hit with BrainSpheres (setting [3]) was found to be 0. For the same molecule, the “hitc BrainSphere.Cyto” value with BrainSpheres (resazurin, day 13, tcplfit2) stood at 0. Moreover, in the series with BrainSpheres (setting [4]), the “BMD BrainSphere.Cyto” value is 4.5 µM. Moreover, the “ACC BrainSphere.Cyto” value in the series with BrainSpheres (setting [5]) amounted to 5.4 µM.
With `CC1(C)[C@H](C(=O)O[C@H](C#N)c2cccc(Oc3ccccc3)c2)[C@@H]1C=C(Br)Br` [Deltamethrin], in the series on 2D rat cortical cultures (setting [1]), the “hitc CCTE_Shafer_MEA_dev_AB” value is on record as 0. Also, the “Cytotoxicity / cell viability” value in the series with BrainSpheres is “magnitude of the response was not sufficient to indicate a positive response”. Besides, the AC50 with BrainSpheres (setting [2]) was determined as 45 µM. This molecule also yielded a Cytotoxicity hit in the series on BrainSpheres (human) of 0. Also, in the series on BrainSpheres (resazurin, day 13, tcplfit2), the “hitc BrainSphere.Cyto” value was found to be 0. In addition, the “BMD BrainSphere.Cyto” value in the series with BrainSpheres (setting [4]) was 102 µM.
For the molecule `CN(C)C(=O)C(CCN1CCC(O)(c2ccc(Cl)cc2)CC1)(c1ccccc1)c1ccccc1` [Loperamide], the half-maximal activity concentration (AC50) with 2D rat cortical cultures (cytotoxicity AlamarBlue) is 5.02 µM. Moreover, in the series with BrainSpheres, the “Cytotoxicity / cell viability” value is listed as “positive hit call for cytotoxicity” and the AC50 worked out at 18.1 µM. Moreover, in the series on BrainSpheres (Homo sapiens, 312 h), the AC50 is 18 µM. Also, in the series with BrainSpheres (human), the “ACC BrainSphere.Cyto” value stood at 8.7 µM; the “BMD BrainSphere.Cyto” value stood at 8.4 µM; the “Cytotoxicity / cell viability” value was “appeared to demonstrate cytotoxic effects at 30 and 90 µM”; the Cytotoxicity hit is 1*. Further, the “hitc BrainSphere.Cyto” value in the series with BrainSpheres (human) was determined as 1.
As to `[CH3][Hg][Cl]` [Methylmercury], the “hitc CCTE_Shafer_MEA_dev_AB” value in the series with 2D rat cortical cultures (setting [1]) is 1. Also, the results for the AC50 in the series with 2D rat cortical cultures (cytotoxicity AlamarBlue) and in the series with BrainSpheres (setting [6]) were 0.283 µM and 0.19 µM, respectively. Also, the “Cytotoxicity in the resazurin assay” value in the series on 2D rat cortical cultures is reported as “demonstrating cytotoxicity in the rNFA”. The “Cytotoxicity / cell viability” value in the series with BrainSpheres (day 13 of exposure) is “magnitude of the response was not sufficient to indicate a positive response”. In the series on BrainSpheres (setting [3]), the Cytotoxicity hit turned out to be 0. Further, the “hitc BrainSphere.Cyto” value with BrainSpheres (resazurin, day 13, tcplfit2) worked out at 0. Moreover, the “BMD BrainSphere.Cyto” value in the series with BrainSpheres (setting [4]) stood at 0.15 µM. Further, in the series with BrainSpheres (setting [5]), the “ACC BrainSphere.Cyto” value amounted to 0.18 µM. The “Top BrainSphere.Cyto” value with BrainSpheres is on record as −10.
